# Data as given in patent US11365203B2, “Fluorescent dye and preparation method and use thereof” (Fluorescence Diagnosis (shanghai) Biotech Company Ltd., priority 2016, dated 2022).
# Experiments:
# Type in all cases: physicochemical
# [1] = Fluorescence emission spectra of molecular rotors in glycerin and methanol; conditions: for Maximum Emission Wavelength: 1×10^−5 M in glycerin and methanol, excited at maximum excitation wavelength of each dye; for Fluorescence Intensity Ratios in Glycerol/Methanol: 1×10^−5 M, glycerol vs methanol solution
# Experimental: The fluorescent dyes (molecular rotors) prepared in Examples 1-68 were separately dissolved in dimethyl sulfoxide to prepare respectively a mother liquor having a concentration of 1×10^−2 M, and each of the mother liquors was added individually to glycerin and methanol, and mixed uniformly, thereby solutions of a final concentration of 1×10^−5 M were prepared individually. According to the different fluorescent dyes, the fluorescence emission spectra of the fluorescent dyes were detected with the maximum excitation wavelengths of respective fluorescent dyes successively under the same conditions.
# [2] = Fluorescence emission in ethylene glycol-glycerol mixed solutions of different viscosities; conditions: 1×10^−5 M, 16.4-946.0 cp; for Emission wavelength: excited at 480 nm; for Viscosity response of fluorescence intensity: log intensity vs log viscosity linear
# Experimental: Molecular Rotors 1, 2, 3, 22, 57, and 63 were added to ethylene glycol-glycerol mixed solutions having viscosities of 16.4 cp, 29.8 cp, 64.5 cp, 143.5 cp, 377.0 cp, and 946.0 cp to prepare a solution with a final concentration of 1×10^−5 M. The solution was excited at 480 nm. The fluorescence emission spectra at different viscosities were shown in FIGS. 1, 4, 7, 10, 13, and 16. Emission wavelengths of the molecular rotors were 555 nm, 590 nm, 610 nm, 570 nm, 559 nm, and 675 nm, respectively.
# [3] = Fluorescence emission intensity in dichloromethane and methanol (polarity response); conditions: 1×10^−5 M; dichloromethane vs methanol; 25° C.
# Experimental: Molecular Rotors 1, 2, 3, 22, 57, 63 were added to dichloromethane and methanol respectively to prepare a solution with a final concentration of 1×10^−5 M. Then, the solution was excited individually by excitation wavelengths of 480 nm, 480 nm and 500 nm at 25° C. to detect their fluorescence emission intensities in two different polar solvents.
Molecule,Maximum Emission Wavelength [1] [nm],Fluorescence Intensity Ratios in Glycerol/Methanol [1],Emission wavelength [2] [nm],Viscosity response of fluorescence intensity [2],Polarity response of fluorescence intensity [3]
"2-[2-cyano-2-(2-benzoxazole)-vinyl]-5-didecylamino-thieno[3,2,b]thiophene [Molecular Rotor 2]",590,1183,590,sensitive to viscosity,insensitive to the polarity change
"CN(C)c1cc2sc(/C=C(\C#N)C(=O)OC(C)(C)C)cc2s1 [Molecular Rotor 1, 2-(2-cyano-2-tert-butyl formatevinyl)-5-dimethylamino-thieno[3,2,b]thiophene]",555,790,555,sensitive to viscosity,insensitive to the polarity change
"CN(CCO)c1cc2sc(/C=C(\C#N)c3nc4ccccc4s3)cc2s1 [Molecular Rotor 3, 2-[2-cyano-2-(1,3-benzothiazol-2-yl)-vinyl]-5-(N-methyl-N-hydroxyethyl)-thieno[3,2,b]thiophene]",610,1455,610,sensitive to viscosity,insensitive to the polarity change
CN(C)c1ccc2cc(/C=C(\C#N)C(=O)OC(C)(C)C)sc2c1 [Molecular Rotor 22],570,989,570,sensitive to viscosity,insensitive to the polarity change
CCCCCCCCCCN(CCCCCCCCCC)c1cc2cc3sc(/C=C(\C#N)C(=O)OC(C)(C)C)cc3cc2s1 [Molecular Rotor 42],558,924,–,–,–
CN(CCO)c1cc2cc3sc(/C=C(\C#N)c4nc5ccccc5o4)cc3cc2s1 [Molecular Rotor 43],582,816,–,–,–
CNc1cc2cc3sc(/C=C(\C#N)c4nc5ccccc5s4)cc3cc2s1 [Molecular Rotor 44],603,631,–,–,–
COCCOCCOCCOCCOCCN(C)c1cc2cc3sc(/C=C4/N=C(C)N(C)C4=O)cc3cc2s1 [Molecular Rotor 45],585,812,–,–,–
COCCNC(=O)/C(C#N)=C/c1cc2cc3sc(N4CCCC4)cc3cc2s1 [Molecular Rotor 46],563,712,–,–,–
CN(CCC#N)c1cc2cc3sc(/C=C(\C#N)C(=O)O)cc3cc2s1 [Molecular Rotor 47],561,912,–,–,–
CN(CCO)c1cc2cc3cc(C=C(C#N)C#N)sc3cc2s1 [Molecular Rotor 48],562,608,–,–,–
CN(CCOCCCS(=O)(=O)O)c1cc2cc3cc(/C=C(\C#N)C(=O)OC(C)(C)C)sc3cc2s1 [Molecular Rotor 49],559,612,–,–,–
CC1=N/C(=C/c2cc3cc4cc(N(CCO)CCO)sc4cc3s2)C(=O)N1C [Molecular Rotor 50],587,777,–,–,–
CNc1cc2cc3cc(/C=C4/N=C(c5ccccc5)N(C)C4=O)sc3cc2s1 [Molecular Rotor 51],599,535,–,–,–
COCCOCCOCCOCCOCCN(C)c1cc2cc3cc(/C=C(\C#N)c4nc5ccccc5o4)sc3cc2s1 [Molecular Rotor 52],578,680,–,–,–
CN(CCC#N)c1cc2cc3cc(/C=C(\C#N)c4nc5ccccc5s4)sc3cc2s1 [Molecular Rotor 53],599,915,–,–,–
COCCNC(=O)/C(C#N)=C/c1cc2cc3cc(N4CCOCC4)sc3cc2s1 [Molecular Rotor 54],563,722,–,–,–
COCCNC(=O)/C(C#N)=C/c1cc2cc3cc(N4CCOCC4)sc3cc2s1 [Molecular Rotor 55],562,466,–,–,–
CN(C)c1cc2c(s1)-c1sc(C=C(C#N)C#N)cc1[Si]2(C)C [Molecular Rotor 56],655,591,–,–,–
CN(CCO)c1cc2c(s1)-c1sc(/C=C(\C#N)C(=O)OC(C)(C)C)cc1[Si]2(C)C [Molecular Rotor 57],659,884,559,sensitive to viscosity,insensitive to the polarity change
C[Si]1(C)c2cc(/C=C(\C#N)C(=O)O)sc2-c2sc(N(CCO)CCO)cc21 [Molecular Rotor 58],656,683,–,–,–
CNc1cc2c(s1)-c1sc(/C=C(\C#N)C(=O)OC(C)(C)C)cc1[Si]21CCC1 [Molecular Rotor 60],637,812,–,–,–
CN(CCC#N)c1cc2c(s1)-c1sc(/C=C(\C#N)c3nc4ccccc4o3)cc1[Si]21CCC1 [Molecular Rotor 61],691,816,–,–,–
CN(CCO)c1cc2c(s1)-c1sc(/C=C(\C#N)c3nc4ccccc4s3)cc1[Si]21CCC1 [Molecular Rotor 62],715,759,–,–,–
CN(C)c1cc2c(s1)c1sc(/C=C(\C#N)C(=O)OC(C)(C)C)cc1n2C [Molecular Rotor 63],675,516,675,sensitive to viscosity,insensitive to the polarity change
CN(C)c1cc2c(s1)-c1sc(/C=C(\C#N)C(=O)OC(C)(C)C)cc1C2(C)C [Molecular Rotor 65],645,591,–,–,–
CN(C)c1cc2c(s1)-c1sc(/C=C(\C#N)c3nc4ccccc4o3)cc1C2(C)C [Molecular Rotor 66],670,623,–,–,–
CN(CCO)c1cc2c(s1)-c1sc(/C=C(\C#N)c3nc4ccccc4s3)cc1C2(C)C [Molecular Rotor 67],690,789,–,–,–
CN(CCO)c1cc2c(s1)-c1sc(/C=C(\C#N)C(=O)O)cc1C2(C)C [Molecular Rotor 68],648,953,–,–,–
